From US10807993B2, “Dihydrochromene derivatives” (Sumitomo Dainippon Pharma Co., Ltd., priority 2018, dated 2020)
Like-named read-outs stand apart in the source and are kept apart here.

Assays:
HT-29 cells = assay: Inhibition test for sphere formation assay of cancer cells; assay type: cell-based; conditions: for IC50: sphere culture (ultra-low attachment, serum-free), 4 days, CellTiter-Glo, read-out: Sphere IC50 value (concentration for 50% inhibition of cell proliferation); for activity for inhibiting cell proliferation in the sphere culture condition: summary in words
Method: Reliable methods established for measuring the self-renewal ability of cells which is one of the CSC's properties include a method for measuring the sphere-forming ability of cancer cells in non-adherent condition in the absence of serum (Cancer Res 65, 5506-5511 (2005)). HT-29 cells were available from American Type Culture Collection (ATCC). HT-29 cells were cultured at 37° C. under 5% CO2 using the McCoy's 5a medium containing 10% fetal bovine serum (FBS) and 1% penicillin/streptomycin. HT-29 cells were seeded in a 384 Well Black Clear Bottom Ultra-Low Attachment Microplate (Corning Cat. No. 3827) in an amount of 350-800 cells/well using the DMEM/F12 medium containing 2% B27 supplement (GIBCO), 20 ng/mL epidermal growth factor (EGF) (peprotech), 10 ng/mL basic fibroblast growth factor (bFGF) (peprotech), 5 μg/mL insulin (Sigma), and 1% penicillin/streptomycin. Each test compound was added into each well to adjust the final concentration of DMSO to 0.1%, and the cells were cultured for 4 days. The number of viable cells in each well was then measured with CellTiter-Glo™ Luminescent Cell Viability Assay (Promega) to calculate the concentration of each test compound for 50% inhibition of cell proliferation (Sphere IC50 value; […])
The experiment of Test 1 was performed for each compound of each Example. The concentration of each test compound for 50% inhibition of cell proliferation (Sphere IC50 value; μmol/L) is shown in the following Table.

hERG = hERG (Homo sapiens (Human), UniProt Q12809); assay: Test for evaluating hERG inhibition (QPatch HT, CHO cell strain stably expressing hERG); conditions: for hERG/HT-29: hERG IC50 (Test 2) divided by HT-29 sphere IC50 (Test 1); for deviation between the concentration of inhibiting 50% cell proliferation and the concentration of inhibiting 50% hERG current: summary in words of hERG/HT-29
hERG, sequence (Q12809 whole entry): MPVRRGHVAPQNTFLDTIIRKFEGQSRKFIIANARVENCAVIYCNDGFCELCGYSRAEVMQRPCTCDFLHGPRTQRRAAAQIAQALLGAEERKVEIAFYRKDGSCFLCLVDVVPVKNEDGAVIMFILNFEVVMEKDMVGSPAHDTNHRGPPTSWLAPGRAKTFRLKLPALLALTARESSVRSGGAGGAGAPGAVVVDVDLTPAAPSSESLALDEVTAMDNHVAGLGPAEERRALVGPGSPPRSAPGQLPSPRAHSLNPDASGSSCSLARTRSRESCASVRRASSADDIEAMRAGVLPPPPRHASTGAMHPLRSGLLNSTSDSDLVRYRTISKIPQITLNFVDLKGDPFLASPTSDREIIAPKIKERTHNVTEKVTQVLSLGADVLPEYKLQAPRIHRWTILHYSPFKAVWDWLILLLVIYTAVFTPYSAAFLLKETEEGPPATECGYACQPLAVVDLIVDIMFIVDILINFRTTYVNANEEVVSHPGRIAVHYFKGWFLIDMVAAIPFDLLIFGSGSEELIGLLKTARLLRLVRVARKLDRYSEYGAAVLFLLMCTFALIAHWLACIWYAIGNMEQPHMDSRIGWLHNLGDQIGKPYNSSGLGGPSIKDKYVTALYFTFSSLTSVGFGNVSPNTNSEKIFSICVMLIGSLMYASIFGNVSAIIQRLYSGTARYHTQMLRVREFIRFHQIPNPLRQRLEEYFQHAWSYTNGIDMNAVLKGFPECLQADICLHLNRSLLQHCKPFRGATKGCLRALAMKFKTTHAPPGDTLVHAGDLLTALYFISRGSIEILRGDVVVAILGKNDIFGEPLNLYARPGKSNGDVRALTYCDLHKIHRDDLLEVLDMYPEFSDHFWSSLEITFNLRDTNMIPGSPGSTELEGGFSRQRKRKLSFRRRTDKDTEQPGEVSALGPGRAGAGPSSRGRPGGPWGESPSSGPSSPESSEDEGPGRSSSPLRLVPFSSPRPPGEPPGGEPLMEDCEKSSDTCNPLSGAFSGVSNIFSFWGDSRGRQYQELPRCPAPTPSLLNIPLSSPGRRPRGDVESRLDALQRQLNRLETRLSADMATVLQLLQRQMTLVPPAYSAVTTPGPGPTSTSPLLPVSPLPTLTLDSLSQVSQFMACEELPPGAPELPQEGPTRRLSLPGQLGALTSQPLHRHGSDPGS
Method: To a cultured CHO cell strain which stably expresses hERG was added each test compound to adjust the final concentration of DMSO to 0.0135 to 0.5%. The hERG current was measured with QPatch HT (Sophion Inc.), and the concentration at which 50% of the hERG current was inhibited by each test compound (IC50 value; μM) was calculated.
The compounds of Examples were tested according to Test 2. And, the hERG/HT-29 was calculated by dividing the compound concentration obtained in Test 2 (50% of the hERG current is inhibited) by the compound concentration obtained in Test 1 (50% of the proliferation of HT-29 cells is inhibited).

[1] = read-out: Binding inhibition (IC50, μM), concentration at which 50% of the hERG current was inhibited, CHO cells stably expressing hERG, QPatch HT

CC1(C)Oc2ccc(Cl)cc2C2OCC3(CCN(Cc4ncc[nH]4)CC3)CC21 (centres unmarked) [Example 35]
IC50 (HT-29 cells): 210 nM | hERG/HT-29 (hERG): 16.7 | IC50 (hERG; [1]): 3.5 µM

Cc1nc[nH]c1CN1CCC2(CC1)COC1c3ccc(Cl)cc3OC(C)(C)C1C2 (centres unmarked) [Example 20]
IC50 (HT-29 cells): < 10 nM | activity for inhibiting cell proliferation in the sphere culture condition (HT-29 cells): potent activity | hERG/HT-29 (hERG): >140 | IC50 (hERG; [1]): 1.4 µM | deviation between the concentration of inhibiting 50% cell proliferation and the concentration of inhibiting 50% hERG current (hERG): good deviation

Cc1c(CO)ncn1CCN1CCC2(CC1)COC1c3cc(Cl)ccc3OC(C)(C)C1C2 (centres unmarked) [Example 56]
IC50 (HT-29 cells): < 10 nM | activity for inhibiting cell proliferation in the sphere culture condition (HT-29 cells): potent activity | hERG/HT-29 (hERG): >80 | IC50 (hERG; [1]): 0.8 µM | deviation between the concentration of inhibiting 50% cell proliferation and the concentration of inhibiting 50% hERG current (hERG): good deviation

CC1(C)Oc2cc(Cl)ccc2C2OCC3(CCN(CCn4ccnc4CO)CC3)CC21 (centres unmarked) [Example 54]
IC50 (HT-29 cells): < 10 nM | activity for inhibiting cell proliferation in the sphere culture condition (HT-29 cells): potent activity | hERG/HT-29 (hERG): >140 | IC50 (hERG; [1]): 1.4 µM | deviation between the concentration of inhibiting 50% cell proliferation and the concentration of inhibiting 50% hERG current (hERG): good deviation

Cc1nc[nH]c1CN1CCC2(CC1)COC1c3cc(Cl)ccc3OC(C)(C)C1C2 (centres unmarked) [Example 24]
IC50 (HT-29 cells): 90 nM | hERG/HT-29 (hERG): 42.2 | IC50 (hERG; [1]): 3.8 µM

Cc1nccn1CCN1CCC2(CC1)COC1c3cc(Cl)ccc3OC(C)(C)C1C2 (centres unmarked) [Example 46]
hERG/HT-29 (hERG): >120 | IC50 (hERG; [1]): 1.2 µM | deviation between the concentration of inhibiting 50% cell proliferation and the concentration of inhibiting 50% hERG current (hERG): good deviation

Cc1nccn1CCN1CCC2(CC1)COC1c3cc(Cl)ccc3OC(C)(C)C1C2 (centres unmarked) [Example 47]
IC50 (HT-29 cells): < 10 nM | activity for inhibiting cell proliferation in the sphere culture condition (HT-29 cells): potent activity | hERG/HT-29 (hERG): >190 | IC50 (hERG; [1]): 1.9 µM | deviation between the concentration of inhibiting 50% cell proliferation and the concentration of inhibiting 50% hERG current (hERG): good deviation

CCc1nc(C)c(CN2CCC3(CC2)COC2c4cc(Cl)ccc4OC(C)(C)C2C3)[nH]1 (centres unmarked) [Example 28]
IC50 (HT-29 cells): 90 nM

Cc1nccn1CC(=O)N1CCC2(CC1)COC1c3cccc(Cl)c3OC(C)(C)C1C2 (centres unmarked) [Example 6]
IC50 (HT-29 cells): 610 nM | IC50 (hERG; [1]): < 0.3 µM

Cc1nc[nH]c1CN1CCC2(CC1)COC1c3cc(F)ccc3OC(C)(C)C1C2 (centres unmarked) [Example 22]
IC50 (HT-29 cells): 240 nM | hERG/HT-29 (hERG): 6.67 | IC50 (hERG; [1]): 1.6 µM

CC1(C)Oc2cc(Cl)ccc2C2OCC3(CCN(CCn4ccnc4)CC3)CC21 (racemic) [Example 38, Racemate of (4′aR,10′bR)-8′-chloro-1-[2-(1H-imidazol-1-yl)ethyl]-5′,5′-dimethyl-4′a,10′b-dihydro-2′H,4′H,5′H-spiro[piperidine-4,3′-pyrano[3,2-c][1]benzopyran] and (4′aS,10′bS)-8′-chloro-1-[2-(1H-imidazol-1-yl)ethyl]-5′,5′-dimethyl-4′a,10′b-dihydro-2′H,4′H,5′H-spiro[piperidine-4,3′-pyrano[3,2-c][1]benzopyran]]
IC50 (HT-29 cells; Homo sapiens, 96 h): < 10 nM | IC50 (hERG): 0.8 µM | hERG/HT-29 (hERG): >80 | deviation between the concentration of inhibiting 50% cell proliferation and the concentration of inhibiting 50% hERG current (hERG): good deviation

Cc1nccn1CCN1CCC2(CC1)COC1c3ccc(Cl)cc3OC(C)(C)C1C2 (centres unmarked) [Example 51]
IC50 (HT-29 cells): < 10 nM | activity for inhibiting cell proliferation in the sphere culture condition (HT-29 cells): potent activity | hERG/HT-29 (hERG): >90 | IC50 (hERG; [1]): 0.9 µM | deviation between the concentration of inhibiting 50% cell proliferation and the concentration of inhibiting 50% hERG current (hERG): good deviation

Cn1cncc1CN1CCC2(CC1)COC1c3cccc(Cl)c3OC(C)(C)C1C2 (centres unmarked) [Example 34]
IC50 (HT-29 cells): < 10 nM | activity for inhibiting cell proliferation in the sphere culture condition (HT-29 cells): potent activity | hERG/HT-29 (hERG): >140 | IC50 (hERG; [1]): 1.4 µM | deviation between the concentration of inhibiting 50% cell proliferation and the concentration of inhibiting 50% hERG current (hERG): good deviation

Cc1nc[nH]c1CN1CCC2(CC1)COC1c3cc(Cl)ccc3OC(C)(C)C1C2 (centres unmarked) [Example 26]
IC50 (HT-29 cells): < 10 nM | activity for inhibiting cell proliferation in the sphere culture condition (HT-29 cells): potent activity | hERG/HT-29 (hERG): >60 | IC50 (hERG; [1]): 0.6 µM | deviation between the concentration of inhibiting 50% cell proliferation and the concentration of inhibiting 50% hERG current (hERG): good deviation

Cc1nc[nH]c1CN1CCC2(CC1)COC1c3ccc(Cl)cc3OC(C)(C)C1C2 (racemic) [Example 18, Racemate of (4′aR,10′bR)-8′-chloro-5′,5′-dimethyl-1-[(4-methyl-1H-imidazol-5-yl)methyl]-4′a,10′b-dihydro-2′H,4′H,5′H-spiro[piperidine-4,3′-pyrano[3,2-c][1]benzopyran] and (4′aS,10′bS)-8′-chloro-5′,5′-dimethyl-1-[(4-methyl-1H-imidazol-5-yl)methyl]-4′a,10′b-dihydro-2′H,4′H,5′H-spiro[piperidine-4,3′-pyrano[3,2-c][1]benzopyran]]
IC50 (HT-29 cells; Homo sapiens, 96 h): 20 nM | IC50 (hERG): 0.6 µM | hERG/HT-29 (hERG): 30

COC(=O)c1cn(CCN2CCC3(CC2)COC2c4cc(Cl)ccc4OC(C)(C)C2C3)cn1 (centres unmarked) [Example 59]
IC50 (HT-29 cells): 980 nM

CC1(C)Oc2ccc(Cl)cc2C2OCC3(CCN(CCn4ccnc4CO)CC3)CC21 (centres unmarked) [Example 53]
IC50 (HT-29 cells): < 10 nM | activity for inhibiting cell proliferation in the sphere culture condition (HT-29 cells): potent activity

CC1(C)Oc2ccc(F)cc2C2OCC3(CCN(CCn4ccnc4CO)CC3)CC21 (centres unmarked) [Example 52]
IC50 (HT-29 cells): < 10 nM | activity for inhibiting cell proliferation in the sphere culture condition (HT-29 cells): potent activity

CC1(C)Oc2cc(Cl)ccc2C2OCC3(CCN(CCn4ccnc4CCN)CC3)CC21 (centres unmarked) [Example 62]
IC50 (hERG; [1]): 6.3 µM

CC1(C)Oc2cc(Cl)ccc2C2OCC3(CCN(CCn4ccnc4)CC3)CC21 (centres unmarked) [Example 42]
IC50 (HT-29 cells): < 10 nM | activity for inhibiting cell proliferation in the sphere culture condition (HT-29 cells): potent activity | hERG/HT-29 (hERG): >140 | IC50 (hERG; [1]): 1.4 µM | deviation between the concentration of inhibiting 50% cell proliferation and the concentration of inhibiting 50% hERG current (hERG): good deviation

CC1(C)Oc2ccc(Cl)cc2C2OCC3(CCN(CCn4ccnc4)CC3)CC21 (centres unmarked) [Example 40]
IC50 (HT-29 cells): < 10 nM | activity for inhibiting cell proliferation in the sphere culture condition (HT-29 cells): potent activity | hERG/HT-29 (hERG): >140 | IC50 (hERG; [1]): 1.4 µM | deviation between the concentration of inhibiting 50% cell proliferation and the concentration of inhibiting 50% hERG current (hERG): good deviation

Cc1nc[nH]c1CN1CCC2(CC1)COC1c3ccc(Cl)cc3OCC1C2 (single isomer, unassigned) [Example 64a]
IC50 (HT-29 cells): < 10 nM | activity for inhibiting cell proliferation in the sphere culture condition (HT-29 cells): potent activity | hERG/HT-29 (hERG): >60 | IC50 (hERG; [1]): 0.6 µM | deviation between the concentration of inhibiting 50% cell proliferation and the concentration of inhibiting 50% hERG current (hERG): good deviation

Cc1nc(CN2CCC3(CC2)COC2c4cc(Cl)ccc4OC(C)(C)C2C3)c[nH]1 (centres unmarked) [Example 30]
IC50 (HT-29 cells): 2280 nM | hERG/HT-29 (hERG): 7.46 | IC50 (hERG; [1]): 1.7 µM

Cc1nccn1CC(=O)N1CCC2(CC1)COC1c3ccc(Cl)cc3OC(C)(C)C1C2 (centres unmarked) [Example 5]
IC50 (HT-29 cells): 410 nM | IC50 (hERG; [1]): < 0.3 µM

CC1(C)Oc2cc(Cl)ccc2C2OCC3(CCN(CCn4ccnc4)CC3)CC21 (centres unmarked) [Example 41]
IC50 (HT-29 cells): < 10 nM | activity for inhibiting cell proliferation in the sphere culture condition (HT-29 cells): potent activity | hERG/HT-29 (hERG): >70 | IC50 (hERG; [1]): 0.7 µM | deviation between the concentration of inhibiting 50% cell proliferation and the concentration of inhibiting 50% hERG current (hERG): good deviation

Cc1nc[nH]c1CN1CCC2(CC1)COC1c3ccc(Cl)cc3OCC1C2 (racemic) [Example 64, Racemate of (4′aS,10′bR)-8′-chloro-1-[(4-methyl-1H-imidazol-5-yl)methyl]-4′a,10′b-dihydro-2′H,4′H,5′H-spiro[piperidine-4,3′-pyrano[3,2-c][1]benzopyran] and (4′aR,10′bS)-8′-chloro-1-[(4-methyl-H-imidazol-5-yl)methyl]-4′a,10′b-dihydro-2′H,4′H,5′H-spiro[piperidine-4,3′-pyrano[3,2-c][1]benzopyran]]
IC50 (HT-29 cells; Homo sapiens, 96 h): 70 nM | IC50 (hERG): 0.4 µM | hERG/HT-29 (hERG): 5.71

Cc1nc[nH]c1CN1CCC2(CC1)COC1c3cc(Cl)ccc3OC(C)(C)C1C2 (centres unmarked) [Example 25]
IC50 (HT-29 cells): 70 nM | hERG/HT-29 (hERG): 5.7 | IC50 (hERG; [1]): 0.4 µM

Cc1nccn1CC(=O)N1CCC2(CC1)COC1c3cc(Br)ccc3OC(C)(C)C1C2 (centres unmarked) [Example 7]
IC50 (HT-29 cells): 90 nM | IC50 (hERG; [1]): < 0.3 µM

CC1(C)Oc2ccc(Cl)cc2C2OCC3(CCN(C(=O)Cn4cnc(CF)c4)CC3)CC21 (centres unmarked) [Example 16]
IC50 (HT-29 cells): 4400 nM

Cn1ccnc1CN1CCC2(CC1)COC1c3cc(Cl)ccc3OC(C)(C)C1C2 (centres unmarked) [Example 36]
IC50 (HT-29 cells): 40 nM
